Assays:
mature human osteoclasts = assay: osteoclast-mediated resorption of mineralized matrix; assay type: cell-based
Procedure: The study was carried out following the method below: CD15+ monocytes (osteoclast precursor cells) were cultivated for 3 days in a proliferation medium (Igla α-modified minimum essential medium/fetal calf serum (aMEM/FCS), 10% with 25 ng/ml of macrophage colony-stimulating factor (M-CSF)). During this stage M-CSF promoted proliferation and expression of a receptor activator of nuclear factor KB (RANK, cappa-B, type I membrane protein). The proliferation medium was removed and cells were differentiated in a differentiation medium (aMEM/FCS-10% with 100 ng/ml of RANKL and 25 ng/ml of M-CSF). When mature osteoclasts were detected in the culture (day 4 of the study), the cells were collected and re-inoculated into a 96-well plate coated with a synthetic mineralized matrix. Cultivation continued for 48 hours (at presence of the studied compounds) to evaluate osteoclast resorption. Then number of mature osteoclasts and the resorption degree were evaluated. An effect of 4-methylbenzenesulfonic acid and Compound 1 salt concentration on concentration and resorption degree of mature osteoclasts was evaluated in comparison with control samples ([…] control, 0.3% DMSO solvent) and reference inhibitors, i.e., saracatinib and bosutinib (see FIG. 18).

[1] = pharmacokinetics in blood plasma after oral administration in Wistar rats; conditions: rat, in vivo, 21 mg/kg
[2] = system: chondrocytes from knee joint cartilage of young rats; assay: IL-1β-induced hypertrophic changes in chondrocytes (aggrecan expression); assay type: cell-based, rats (Sprague Dawley)
Procedure: The study was carried out following the method below: chondrocytes were isolated from a knee joint cartilage of young rats (aged 3 weeks, Sprague Dawley line). The isolated chondrocytes in a cultural medium (Dulbecco's modified Igla minimum essential medium/fetal calf serum (DMEM/FCS), 10%, 4-(2-hydroxyethyl)-1-piperazine ethanesulfonic acid (HEPES), 25 mM) was stored frozen at −80° C. The obtained chondrocytes were unfrozen a day before the experiment, inoculated into 12-well plates and cultured as a monolayer during 24 hours. After 24 hours of incubation IL-1β-induced activation of chondrocytes and treatment with the studied compounds was started and continued for 3 days.

[3] = system: Sprague-Dawley rat models of osteoarthritis induced by intra-articular introduction of sodium iodoacetate; assay: mechanical allodynia test with von Frey filaments in osteoarthritis induced by sodium iodoacetate; assay type: in vivo
Procedure: The intra-articular introduction of aerobic glycolysis inhibitor (sodium iodoacetate) results in death of chondrocytes and acute inflammatory reaction in a synovial cavity. In absence of treatment, at day 10 from the pathology induction an onset of chronic pain is observed due to cartilage destruction and development of chronic inflammation in particular cases [J Musculoskel Neuron Interact 2001; 1(4):363-376]. Extent of osteoarthritis development in rats was evaluated by comparison of extremity pain sensitivity threshold after the introduction of sodium iodoacetate versus background measurements taken before the pathology induction. The threshold of the pain sensitivity was evaluated by mechanical allodynia test using von Frey filaments (see Table 8).
For the purposes of the study, rat males weighing 150 to 200 g were selected. All the animals underwent acclimatization for 14 days. The animals were housed in a polycarbonate cages of 3H type manufactured by Charles River laboratories Inc according to COST R 53434-2009. 12-hours lighting regimen was maintained. The animals had access to food and water ad libitum. The pathology was induced by introduction of 50 μl solution containing 2 mg of sodium iodoacetate into a synovial cavity of the animal knee joints. Tactile allodynia induced by a mechanical irritation was evaluated using von Frey filaments weighing 0.06 to 23.96 g. The test was repeated five times for each filament at intervals of 1 to 2 s. The sensitivity threshold was considered as a minimum reaction threshold provoking paw withdrawal in one of five repeats.

[4] = further clinical trials, daily exposure of a therapeutically effective dose; cited from earlier work
[5] = target: human recombinant tyrosine c-Src kinase (Homo sapiens, UniProt P12931); assay: human kinase enzymatic activity in vitro (33P-ATP, peptide substrate); assay type: biochemical
Procedure: (§1) The Compound 1 effect on the human recombinant tyrosine c-Src kinase was measured as follows: a peptide substrate was dissolved in a reaction buffer ad 0.2 mg/ml concentration. A solution of recombinant c-Src kinase was added to 2 nM concentration and the studied compound to the required concentration (within the range of 1 nM to 10 μM) was added. A solution of ^33P-ATP was added to 10 μM concentration (final specific activity of the solution is 0.01 μCi). After 120 minutes of incubation, the reaction mixture was applied on ion-exchange paper, which was rinsed with a plenty of phosphoric acid. A reaction extent was determined based on radioactivity of the reaction products.

Lck = Lck (Homo sapiens, UniProt P06239); assay: human kinase enzymatic activity in vitro; assay type: biochemical; conditions: 0.5 μmol/l
Lyn = Lyn (Homo sapiens, UniProt P07948); assay: human kinase enzymatic activity in vitro; assay type: biochemical; conditions: 0.5 μmol/l
Fyn = Fyn (Homo sapiens, UniProt P06241); assay: human kinase enzymatic activity in vitro; assay type: biochemical; conditions: 0.5 μmol/l
Frk = Frk (Homo sapiens, UniProt P42685); assay: human kinase enzymatic activity in vitro; assay type: biochemical; conditions: 0.5 μmol/l
Fgr = Fgr (Homo sapiens, UniProt P09769); assay: human kinase enzymatic activity in vitro; assay type: biochemical; conditions: 0.5 μmol/l
Blk = Blk (Homo sapiens, UniProt P51451); assay: human kinase enzymatic activity in vitro; assay type: biochemical; conditions: 0.5 μmol/l
Yes = Yes (Homo sapiens, UniProt P07947); assay: human kinase enzymatic activity in vitro; assay type: biochemical; conditions: 0.5 μmol/l
Src-kinase family = assay: human kinase enzymatic activity in vitro; assay type: biochemical; conditions: 0.5 μmol/l
Procedure: as §1

Syk kinase = Syk kinase (Homo sapiens, UniProt P43405); assay: human kinase enzymatic activity in vitro; assay type: biochemical
Hck = Hck (Homo sapiens, UniProt P08631); assay: human kinase enzymatic activity in vitro; assay type: biochemical; conditions: 0.5 μmol/l
[6] = pKa of protonated pyridine nitrogen; assay type: physicochemical; conditions: protonated nitrogen atom of pyridine
From the text: To obtain a form having optimal biological and physical properties, various salt forms of the Compound 1 was synthesized. A primary goal of the salt form optimization was to obtain a Compound 1 salt form having the following properties: crystallinity, composition stability, therapeutic efficacy, safety, ease of production process scalability, using a pharmacologically acceptable counterion (preferably anion), and using low toxicity organic solvents. The salt forms of Compound 1 were obtained with organic solutions of high polarity and low toxicity (Class 3). The counterions were used based on pharmacological acceptance and high acid strength (pKa not exceeding 3.25). The requirement for the high acid strength is conditioned by the fact that a protonated nitrogen atom of pyridine of the Compound 1 is a weak base having pKa 4.

[7] = pharmacokinetics in blood plasma after oral administration in Wistar rats; conditions: Wistar, rat, in vivo, po, 30 mg/kg
Procedure: At the first stage, pharmacokinetics of the Compound 1 free base was studied after oral administration in Wistar rats at dosage of 30 mg/kg.
Pharmacokinetics of several Compound 1 salt forms was studied after oral administration in Wistar rats at a dose of 37 mg/kg (30 mg/kg equivalent to a free base).

[8] = solubility of the primary base in selected organic solvents; assay type: physicochemical; conditions: organic solvent or mixture, thermodynamic from solid
Procedure: At the first stage solubility of the primary base in the selected organic solvents was studied. Maximum volume of a solvent for this study was selected as 10 ml per 100 mg of the base taking into consideration the subsequent process scaling.

Sequence of human recombinant tyrosine c-Src kinase (P12931 whole entry): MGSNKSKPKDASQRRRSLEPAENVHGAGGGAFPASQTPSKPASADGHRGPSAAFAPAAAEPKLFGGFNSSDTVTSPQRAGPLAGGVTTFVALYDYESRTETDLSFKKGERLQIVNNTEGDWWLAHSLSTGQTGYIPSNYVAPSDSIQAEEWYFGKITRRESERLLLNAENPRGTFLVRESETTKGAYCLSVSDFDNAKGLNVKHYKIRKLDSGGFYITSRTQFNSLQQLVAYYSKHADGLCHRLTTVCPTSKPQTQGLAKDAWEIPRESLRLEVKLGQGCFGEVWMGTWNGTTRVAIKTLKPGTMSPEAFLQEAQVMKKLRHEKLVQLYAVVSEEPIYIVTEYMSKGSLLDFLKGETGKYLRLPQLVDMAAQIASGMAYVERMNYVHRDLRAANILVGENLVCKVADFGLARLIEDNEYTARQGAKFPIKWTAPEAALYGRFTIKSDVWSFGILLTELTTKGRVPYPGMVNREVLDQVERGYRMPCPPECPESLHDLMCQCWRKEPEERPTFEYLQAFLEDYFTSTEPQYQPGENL
Sequence of Blk (P51451 whole entry): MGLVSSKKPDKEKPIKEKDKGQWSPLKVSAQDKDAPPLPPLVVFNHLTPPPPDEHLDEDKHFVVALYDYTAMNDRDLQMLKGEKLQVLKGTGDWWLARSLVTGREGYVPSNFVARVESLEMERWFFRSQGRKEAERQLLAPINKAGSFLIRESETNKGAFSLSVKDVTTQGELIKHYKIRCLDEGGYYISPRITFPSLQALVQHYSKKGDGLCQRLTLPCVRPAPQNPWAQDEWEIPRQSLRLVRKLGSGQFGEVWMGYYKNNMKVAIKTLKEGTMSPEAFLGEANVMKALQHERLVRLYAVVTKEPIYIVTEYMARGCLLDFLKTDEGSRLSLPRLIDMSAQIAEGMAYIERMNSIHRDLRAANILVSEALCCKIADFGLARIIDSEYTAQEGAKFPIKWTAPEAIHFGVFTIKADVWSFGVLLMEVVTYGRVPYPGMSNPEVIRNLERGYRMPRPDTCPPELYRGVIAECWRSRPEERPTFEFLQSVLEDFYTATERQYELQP
Sequence of Lck (P06239 whole entry): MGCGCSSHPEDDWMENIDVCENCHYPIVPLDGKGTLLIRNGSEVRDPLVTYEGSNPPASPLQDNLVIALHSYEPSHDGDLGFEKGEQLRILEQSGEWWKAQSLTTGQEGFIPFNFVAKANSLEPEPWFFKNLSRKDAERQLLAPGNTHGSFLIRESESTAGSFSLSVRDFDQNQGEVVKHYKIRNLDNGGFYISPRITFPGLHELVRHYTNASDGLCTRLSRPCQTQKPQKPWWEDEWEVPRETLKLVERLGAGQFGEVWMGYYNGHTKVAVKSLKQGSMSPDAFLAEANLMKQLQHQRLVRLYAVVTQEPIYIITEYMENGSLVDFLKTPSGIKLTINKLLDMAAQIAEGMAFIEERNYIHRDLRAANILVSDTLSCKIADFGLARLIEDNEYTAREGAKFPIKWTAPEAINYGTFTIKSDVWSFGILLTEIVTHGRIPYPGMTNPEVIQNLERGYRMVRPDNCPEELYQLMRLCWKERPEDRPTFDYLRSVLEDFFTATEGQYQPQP
Sequence of Yes (P07947 whole entry): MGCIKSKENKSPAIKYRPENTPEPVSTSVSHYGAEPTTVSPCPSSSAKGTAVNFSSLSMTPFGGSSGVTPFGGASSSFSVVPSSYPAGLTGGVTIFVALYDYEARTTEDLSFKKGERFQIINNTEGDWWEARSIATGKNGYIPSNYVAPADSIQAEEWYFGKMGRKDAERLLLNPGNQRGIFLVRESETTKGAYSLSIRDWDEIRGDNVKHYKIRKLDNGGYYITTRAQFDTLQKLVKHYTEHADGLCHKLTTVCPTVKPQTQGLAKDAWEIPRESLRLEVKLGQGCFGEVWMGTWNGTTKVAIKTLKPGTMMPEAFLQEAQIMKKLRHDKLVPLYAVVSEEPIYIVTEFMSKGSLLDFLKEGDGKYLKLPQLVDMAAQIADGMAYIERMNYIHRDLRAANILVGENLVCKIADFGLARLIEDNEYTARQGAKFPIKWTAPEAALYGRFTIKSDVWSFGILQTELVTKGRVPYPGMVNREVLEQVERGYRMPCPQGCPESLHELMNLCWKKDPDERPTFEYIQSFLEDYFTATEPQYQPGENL
Sequence of Lyn (P07948 whole entry): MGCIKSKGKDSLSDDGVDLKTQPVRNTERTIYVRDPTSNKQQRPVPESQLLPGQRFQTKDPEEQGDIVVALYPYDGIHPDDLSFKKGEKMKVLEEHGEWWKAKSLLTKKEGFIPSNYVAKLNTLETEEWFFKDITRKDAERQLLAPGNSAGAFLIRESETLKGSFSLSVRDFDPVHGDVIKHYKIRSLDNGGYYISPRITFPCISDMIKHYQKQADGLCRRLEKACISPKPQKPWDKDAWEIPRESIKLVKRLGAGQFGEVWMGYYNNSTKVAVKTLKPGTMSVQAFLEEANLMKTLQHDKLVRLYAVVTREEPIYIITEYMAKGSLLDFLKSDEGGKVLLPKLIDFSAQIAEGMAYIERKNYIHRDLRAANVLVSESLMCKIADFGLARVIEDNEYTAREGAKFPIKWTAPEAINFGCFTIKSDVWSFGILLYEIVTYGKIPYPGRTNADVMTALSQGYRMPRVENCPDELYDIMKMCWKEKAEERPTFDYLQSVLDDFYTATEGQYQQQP
Sequence of Hck (P08631 whole entry): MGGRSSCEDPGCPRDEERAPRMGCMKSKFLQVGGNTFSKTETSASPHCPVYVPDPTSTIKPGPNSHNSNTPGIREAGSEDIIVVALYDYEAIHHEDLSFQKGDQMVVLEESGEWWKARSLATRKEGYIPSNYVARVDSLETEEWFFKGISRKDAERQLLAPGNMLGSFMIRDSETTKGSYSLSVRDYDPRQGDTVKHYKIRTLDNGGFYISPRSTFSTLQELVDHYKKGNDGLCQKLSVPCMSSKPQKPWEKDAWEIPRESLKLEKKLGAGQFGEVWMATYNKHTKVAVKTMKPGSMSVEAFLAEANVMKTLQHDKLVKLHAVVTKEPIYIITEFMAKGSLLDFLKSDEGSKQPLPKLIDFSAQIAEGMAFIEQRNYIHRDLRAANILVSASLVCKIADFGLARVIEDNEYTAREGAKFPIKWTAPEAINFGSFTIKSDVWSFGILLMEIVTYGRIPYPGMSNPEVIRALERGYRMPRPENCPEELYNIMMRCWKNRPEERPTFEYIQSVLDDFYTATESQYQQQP
Sequence of Fgr (P09769 whole entry): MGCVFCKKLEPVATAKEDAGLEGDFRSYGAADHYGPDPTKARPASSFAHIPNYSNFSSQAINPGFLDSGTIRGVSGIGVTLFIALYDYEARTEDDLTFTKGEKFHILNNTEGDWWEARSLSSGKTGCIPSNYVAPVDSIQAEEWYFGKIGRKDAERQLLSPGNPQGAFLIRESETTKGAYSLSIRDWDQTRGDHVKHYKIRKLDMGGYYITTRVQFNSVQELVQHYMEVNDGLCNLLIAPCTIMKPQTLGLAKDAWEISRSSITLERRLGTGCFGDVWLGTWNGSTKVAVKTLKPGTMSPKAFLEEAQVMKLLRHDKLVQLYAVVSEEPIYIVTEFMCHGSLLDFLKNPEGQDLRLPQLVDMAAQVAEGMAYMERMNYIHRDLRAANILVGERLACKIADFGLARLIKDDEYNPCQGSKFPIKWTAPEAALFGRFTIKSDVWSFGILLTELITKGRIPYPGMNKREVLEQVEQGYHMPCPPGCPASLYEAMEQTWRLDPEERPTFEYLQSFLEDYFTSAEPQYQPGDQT
Sequence of Fyn (P06241 whole entry): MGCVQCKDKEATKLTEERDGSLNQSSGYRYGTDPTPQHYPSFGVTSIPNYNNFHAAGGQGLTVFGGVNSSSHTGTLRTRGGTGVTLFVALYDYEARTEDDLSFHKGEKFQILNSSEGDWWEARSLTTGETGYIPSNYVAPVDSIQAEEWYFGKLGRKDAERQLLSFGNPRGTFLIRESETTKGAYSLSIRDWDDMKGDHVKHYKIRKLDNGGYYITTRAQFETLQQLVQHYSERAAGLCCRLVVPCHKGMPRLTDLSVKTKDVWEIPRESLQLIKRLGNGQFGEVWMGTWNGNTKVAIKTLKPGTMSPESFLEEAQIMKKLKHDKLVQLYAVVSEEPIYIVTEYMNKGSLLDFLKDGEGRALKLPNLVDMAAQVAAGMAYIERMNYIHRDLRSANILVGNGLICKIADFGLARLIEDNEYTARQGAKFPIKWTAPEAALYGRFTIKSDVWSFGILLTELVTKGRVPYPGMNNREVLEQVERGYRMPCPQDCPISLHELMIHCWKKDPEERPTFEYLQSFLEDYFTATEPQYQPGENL
Sequence of Frk (P42685 whole entry): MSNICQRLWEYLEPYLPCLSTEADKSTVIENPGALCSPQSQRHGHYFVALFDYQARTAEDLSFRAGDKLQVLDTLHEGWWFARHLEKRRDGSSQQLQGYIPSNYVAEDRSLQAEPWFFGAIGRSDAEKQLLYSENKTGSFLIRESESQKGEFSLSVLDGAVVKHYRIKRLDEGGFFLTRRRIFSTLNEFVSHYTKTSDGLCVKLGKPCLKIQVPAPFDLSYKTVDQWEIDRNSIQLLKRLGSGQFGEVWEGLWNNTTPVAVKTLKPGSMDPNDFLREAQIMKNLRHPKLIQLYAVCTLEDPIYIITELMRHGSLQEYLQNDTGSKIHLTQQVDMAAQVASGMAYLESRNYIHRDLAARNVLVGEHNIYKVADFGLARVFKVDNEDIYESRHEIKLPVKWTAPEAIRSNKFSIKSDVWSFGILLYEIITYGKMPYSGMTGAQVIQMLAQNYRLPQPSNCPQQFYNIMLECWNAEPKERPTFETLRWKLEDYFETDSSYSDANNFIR

COc1cc(Nc2ncnc(Nc3ccc4c(n3)NC(=O)C(C)(C)O4)n2)cc(OC)c1OC.Cc1ccc(S(=O)(=O)O)cc1.O [salt monohydrate of 4-methylbenzenesulfonic acid and 2,2-dimethyl-6-((4-((3,4,5-trimethoxyphenyl)amino)-1,3,5-triazine-2-yl)amino)-2H-pyrido[3,2-1,4]oxazine-3(4H)-one Base (Polymorphic Modification B)]
effect on osteoclast-mediated resorption of the mineralized matrix (mature human osteoclasts; concentrations from 1.0 μM): statistically significant dose-dependent inhibitory effect

COc1cc(Nc2ncnc(Nc3ccc4c(n3)NC(=O)C(C)(C)O4)n2)cc(OC)c1OC.Cc1ccc(S(=O)(=O)O)cc1.O [salt monohydrate of 4-methylbenzenesulfonic acid and 2,2-dimethyl-6-((4-((3,4,5-trimethoxyphenyl)amino)-1,3,5-triazine-2-yl)amino)-2H-pyrido[3,2-b][1,4]oxazine-3(4H)-one Base (Polymorphic Modification A)]
AUC0-t [1]: 2,339 ng · h/ml
AUC0-∞ [1]: 2,418 ng · h/ml
T1/2 [1]: 5.0 h
Tmax [1]: 1.5 h
effect on IL-1β-induced hypertrophic changes in chondrocytes (increase in aggrecan expression) ([2]; treatment for 3 days): statistically significant positive effect

O=P(O)(O)C(O)(Cn1ccnc1)P(=O)(O)O [Zoledronic acid, reference compound]
Reaction threshold value, % of control ([3]; 0.1 mg/kg subcutaneously, days 0, 3, 6, 9, 12, 15, 18, 21, 24, 27, day 14): 98 % of control
Reaction threshold value, % of control ([3]; 0.1 mg/kg subcutaneously, days 0, 3, 6, 9, 12, 15, 18, 21, 24, 27, day 21): 108 % of control
Reaction threshold value, % of control ([3]; 0.1 mg/kg subcutaneously, days 0, 3, 6, 9, 12, 15, 18, 21, 24, 27, day 28): 118 % of control

CN1CCN(CCOc2cc(OC3CCOCC3)c3c(Nc4c(Cl)ccc5c4OCO5)ncnc3c2)CC1 [saracatinib]
toxicity [4]: high toxicity

COc1cc(Nc2ncnc(Nc3ccc4c(n3)NC(=O)C(C)(C)O4)n2)cc(OC)c1OC.Cc1ccc(S(=O)(=O)O)cc1 [salt of 4-methylbenzenesulfonic acid and 2,2-dimethyl-6-((4-((3,4,5-trimethoxyphenyl)amino)-1,3,5-triazine-2-yl)amino)-2H-pyrido[3,2-b][1,4]oxazine-3(4H)-one base]
IC50 [5]: 14 nM
inhibition at 0.5 µM ([5]; 0.5 μmol/l): > 50%
remaining activity at 0.5 µM ([5]; 0.5 μmol/l, read-out: residual activity): 6%
inhibition at 0.5 µM (Lck): > 50%
remaining activity at 0.5 µM (Lck; read-out: residual activity): 12%
inhibition at 0.5 µM (Lyn): > 50%
remaining activity at 0.5 µM (Lyn; read-out: residual activity): 13%
increase of aggrecan production ([2]; induced hypertrophic changes in chondrocytes): more than four-time increase
inhibition at 0.5 µM (Fyn): > 50%
remaining activity at 0.5 µM (Fyn; read-out: residual activity): 25%
inhibition at 0.5 µM (Frk): > 50%
inhibition at 0.5 µM (Fgr): > 50%
remaining activity at 0.5 µM (Fgr; read-out: residual activity): 23%
inhibition at 0.5 µM (Blk): > 50%
remaining activity at 0.5 µM (Blk; read-out: residual activity): 20%
inhibition at 0.5 µM (Yes): > 50%
remaining activity at 0.5 µM (Yes; read-out: residual activity): 12%
residual Src-kinase family activity (Src-kinase family): ≤ 25 % of control values
IC50 (Syk kinase): 40 nM
inhibition at 0.5 µM (Syk kinase; 0.5 μmol/l): > 50%
inhibition at 0.5 µM (Hck): > 50%
remaining activity at 0.5 µM (Hck; read-out: residual activity): 25%

COc1ccc2cc([C@H](C)C(=O)O)ccc2c1 [Naproxen, reference compound]
Reaction threshold value, % of control ([3]; 50 mg/kg intragastric, days 14, 21, 28, day 14): 82 % of control
Reaction threshold value, % of control ([3]; 50 mg/kg intragastric, days 14, 21, 28, day 21): 102 % of control
Reaction threshold value, % of control ([3]; 50 mg/kg intragastric, days 14, 21, 28, day 28): 96 % of control

COc1cc(Nc2ncnc(Nc3ccc4c(n3)NC(=O)C(C)(C)O4)n2)cc(OC)c1OC [Compound 1, 2,2-dimethyl-6-((4-((3,4,5-trimethoxyphenyl)amino)-1,3,5-triazine-2-yl)amino)-2H-pyrido[3,2-b][1,4]oxazine-3(4H)-one]
half-maximal inhibitory concentration ([5]; human c-Src kinase): within a nanomolar range
pKa [6]: 4
AUC0-t [7]: 55 ng·h/mL
AUC(0-inf) [7]: 73 ng·h/mL
Cmax [7]: 4.12 ng/mL
Tmax [7]: 4 h
Vz(/F) [7]: 6,982.6 l/kg
average daily concentration of the substance [7]: 4.8 nmol/L
half-life [7]: 11.8 h
maximum concentration of the substance in plasma [7]: 9.1 nmol/L
maximum plasma concentration relative to minimum effective concentration [7]: 100 times lower
solubility ([8]; 1,4-Dioxane, 106 mg base in 7 ml, 100 °C (code S-1-4-D)): > 10000 µg/mL
solubility ([8]; Acetone, 97 mg base in 10 ml, 56 °C (code S-1-5-A1)): < 10000 µg/mL
solubility ([8]; Ethanol, 98 mg base in 10 ml, 78 °C (code S-1-2-C2)): < 10000 µg/mL
solubility ([8]; THF, 103 mg base in 10 ml, 66 °C (code S-1-3-T)): < 10000 µg/mL
solubility ([8]; n-Butanol, 101 mg base in 10 ml, 117 °C (code S-1-1-B)): < 10000 µg/mL
effect on osteoclast-mediated resorption of the mineralized matrix (mature human osteoclasts; 48 hours cultivation): dose-dependent inhibitory effect
effective concentration (mature human osteoclasts; studies of Compound 1 biological activity): about 1 μmol/l

Reference: patent publication US10745414B2, “Crystal salt form of 2,2-dimethyl-6-((4-((3,4,5-trimethoxyphenyl)amino)-1,3,5-triazine-2-yl)amino)-2H-pyrido[3,2-b][1,4]oxazine-3(4H)-one for human use” (LIMITED “MOLECULAR TECHNOLOGIES”, priority 2016, dated 2020)
